The text below walks through data of paper PMC3265362 (Biochemical Journal, 2008).

In assay [1] the target is T1, human QR2 (Homo sapiens, UniProt P16083).
T1 sequence (P16083 1-231): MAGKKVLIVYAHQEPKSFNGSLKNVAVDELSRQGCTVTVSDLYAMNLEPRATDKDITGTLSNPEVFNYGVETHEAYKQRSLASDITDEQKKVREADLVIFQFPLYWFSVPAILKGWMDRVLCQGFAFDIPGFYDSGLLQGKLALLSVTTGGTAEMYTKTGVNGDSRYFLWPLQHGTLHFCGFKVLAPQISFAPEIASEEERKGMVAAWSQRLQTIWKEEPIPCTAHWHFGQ
Kind of assay: ITC. The format is binding. The note with it: for ΔG / −TΔS / ΔH: single-site binding model; for ΔH: 50 mM Hepes pH 7.5, 100 mM NaCl, 1 mM TCEP.

Assay [2] addresses T1, human QR2. Kind of assay: Steady-state kinetics, mechanism of inhibition of QR2. The format is biochemical. The following applies: fixed NMeH 100 μM, various menadione.
The target in assay [3] is T1, human QR2. The following applies: read-out: IC50 value, Mammalian cells; cytosolic fraction of mammalian cell lines overexpressing human QR2, dihydrobenzylnicotinamide as co-substrate; ref [37]; cited from earlier work.
The target of assay [4] is T2, human QR2 (quinone reductase 2) (human), P16083.
T2 chain: T1 sequence (P16083 1-231)
The assay is described as follows: crystal structure. The note with it: remark: other sources report otherwise.

A word on the IC50: it is the point on the concentration scale where inhibition reaches its midpoint. What is called stoichiometry N is the number of molecules, sites or subunits per partner or assembly.

Where “and” joins values, the source holds several entries; their conditions need not be identical. Equal values may be shown once.

Take `COc1ccc2[nH]c(I)c(CCNC(C)=O)c2c1` [2-Iodomelatonin]: in assay [1], the “h (Hill coefficient, a measure of the stoichiometry of binding)” value is 0.8; the ΔG is -8.5 ± 0.38 kcal/mol; the “−TΔS” value was -0.65 ± 0.24 kcal/mol; the ΔH was -7.85 ± 0.62 kcal/mol. Also, in assay [1] (listed as 2-iodomelatonin), the ΔH is -7.85 kcal/mol.

For `COc1ccc2[nH]cc(CCNC(C)=O)c2c1` [Melatonin], in assay [1], the “h (Hill coefficient, a measure of the stoichiometry of binding)” value amounted to 0.8; the ΔG was -8.07 ± 0.3 kcal/mol; the “−TΔS” value was 2.38 ± 0.11 kcal/mol; the ΔH is -10.45 ± 0.4 kcal/mol. Also, the ΔH in assay [1] (listed as melatonin) is -10.45 kcal/mol. In assay [2], the “Ki (uncompetitive against menadione)” value is 92 µM and 91.6 ± 4.6 µM.

Turning to `CC(=O)NCCc1c[nH]c2ccc(O)cc12` [N-Acetyl-5-hydroxytryptamine], in assay [3], the IC50 was 99 ± 14 µM.

For `Oc1ccc(/C=C/c2cc(O)cc(O)c2)cc1` [Resveratrol], in assay [1], the “h (Hill coefficient, a measure of the stoichiometry of binding)” value was 0.9; the ΔG was -9.8 ± 0.50 kcal/mol; the “−TΔS” value stood at 5.01 ± 0.61 kcal/mol; the ΔH is -14.6 ± 0.15 kcal/mol.

B1: human QR2 (quinone reductase 2), P16083 1-231 (enzyme)
chain: T1 sequence (P16083 1-231)
With B1, the stoichiometry N in assay [4] is 2.
